Tests used:
IL10/Nox1^dKO mice = assay: Salubrinal treatment of spontaneous colitis in IL10/Nox1 dKO mice; format: in vivo
Description: To assess the pathogenic role of goblet cells in UC, WT and Nox1^KO mice were subjected to oral administration of DSS or rectal administration of TNBS. […] IRE1beta and ATF6alpha branch signaling were extended in colonic epithelial cells as evidenced by the increased XBP-1 mRNA splicing, the induction of GRP78, GRP94, PDI at both mRNA and protein levels, and dilated cisternae and gross distortion of the ER in goblet cells. […] Consistent with reduced eIF2α phosphorylation, increased expression of PPP1R15A/GADD34, a stress-inducible protein that recruits the catalytic subunit of protein phosphatase 1 and promotes eIF2alpha dephosphorylation, was detected in agreement with our previous data in humans^1. EIF2alpha phosphorylation is cytoprotective during ERS, because cells are sensitized to cell death when this pathway is genetically ablated^33 and protected when it is ectopically enforced^34. To test whether a selective pharmacological inhibitor of GADD34-mediated eIF2alpha dephosphorylation may alleviate colitis, IL10/Nox1^dKO mice were treated with 1 mg/kg salubrinal^35 for up to three weeks.

WT and Nox1^KO mice = assay: Tunicamycin (ERS inducer)-induced colitis in WT and Nox1 KO mice; format: in vivo; settings: mice overexpressing goblet cells (Nox1^KO) versus WT mice
[1] = IL10/Nox1^dKO mice, 1 mg/kg for up to three weeks
[2] = salubrinal-treated IL10/Nox1^dKO mice

Compound | immune cell infiltration (IL10/Nox1^dKO mice; [1]) | mucosal architecture and goblet cells (IL10/Nox1^dKO mice; [1]) | apoptosis of colonic mucosa (IL10/Nox1^dKO mice; IL10/Nox1^dKO mice, 1 mg/kg for up to three weeks, at least in part via CHOP expression) | eIF2alpha phosphorylation in colonic mucosa (IL10/Nox1^dKO mice; IL10/Nox1^dKO mice, 1 mg/kg for up to three weeks, mainly detected in colonic epithelial cells) | Grp78/Bip and Grp94 expression (IL10/Nox1^dKO mice; [2]) | amount of colonic and splenic Treg cells (IL10/Nox1^dKO mice; [2]) | levels of proinflammatory cytokines (IL10/Nox1^dKO mice; [2]) | severity of colitis induced by tunicamycin treatment (WT and Nox1^KO mice)
O=C(/C=C/c1ccccc1)NC(NC(=S)Nc1cccc2cccnc12)C(Cl)(Cl)Cl (centres unmarked) [salubrinal] | markedly prevented | restored intact mucosal architecture with normal goblet cells | protected colonic mucosa against apoptosis | caused robust eIF2alpha phosphorylation | trend toward reduced | strongly decreased to baseline | strongly decreased to baseline | 
tunicamycin |  |  |  |  |  |  |  | significantly induced a more severe colitis in mice overexpressing goblet cells than in WT mice

Reference: patent US9217156B2, “Non human animal model for ulcerative colitis and its main complications” (Institut National de la Sante et de la Recherche Medicale …, priority 2012, dated 2015)
